In patent publication US7772241B2, “Variolin derivatives and their use as antitumor agents” (Pharma Mar S.A., priority 2001, dated 2010):
Like-named read-outs stand apart in the source and are kept apart here.

Key:
LoVo-Dox = test: Inhibition of cells growth by colorimetric (SRB) assay, LoVo-Dox; conditions: for GI50 / CC50: Homo sapiens, 48 h
Summary of the method: (§1)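 Human tumour cells seeded at 5×10^3/well in RPMI 1640 10% FBS, attached 18 h, then exposed 48 h to samples at 10 to 10^−8 μg/ml in DMSO/EtOH/PBS (0.5:0.5:99). Growth read by SRB staining after TCA fixation, OD 490 nm, triplicate wells; GI, TGI and LC derived.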

DU-145 = test: Inhibition of cells growth by colorimetric (SRB) assay, DU-145; conditions: for GI50 / CC50: Homo sapiens, DU-145, 48 h
Summary of the method: as §1

HeLa-APL = test: Inhibition of cells growth by colorimetric (SRB) assay, HeLa-APL
Summary of the method: as §1

SMILES: CSc1nccc(-c2c3cccnc3n3c(N(C(C)=O)C(C)=O)nccc23)n1 [Compound 26]
- GI50 (LoVo-Dox; read-out: GI50 LOVO-DOX, SRB assay, 48 hours exposure): 1.79 µM
- CC50 (LoVo-Dox; read-out: LC50 LOVO-DOX, SRB assay, 48 hours exposure): 25.5 µM
- GI50 (LoVo-Dox; read-out: LOVO-DOX GI50, SRB assay, 48 hours exposure): 6.09 µM
- CC50 (LoVo-Dox; read-out: LOVO-DOX LC50, SRB assay, 48 hours exposure): 19 µM
- LOVO-DOX TGI (LoVo-Dox; SRB assay, 48 hours exposure): 1.08E−06
- TGI LOVO-DOX (LoVo-Dox; SRB assay, 48 hours exposure): 1.10E−05
- GI50 (DU-145; read-out: DU-145 GI50, SRB assay, 48 hours exposure): 4.48 µM
- CC50 (DU-145; read-out: DU-145 LC50, SRB assay, 48 hours exposure): 18 µM
- GI50 (DU-145; read-out: GI50 DU-145, SRB assay, 48 hours exposure): 0.581 µM
- CC50 (DU-145; read-out: LC50 DU-145, SRB assay, 48 hours exposure): 14.9 µM
- DU-145 TGI (DU-145; SRB assay, 48 hours exposure): 8.99E−06
- TGI DU-145 (DU-145; SRB assay, 48 hours exposure): 2.10E−06
- GI50 (HeLa-APL; Homo sapiens, 48 h, read-out: HELA-APL GI50, SRB assay, 48 hours exposure): 0.00177 µM
- CC50 (HeLa-APL; Homo sapiens, 48 h, read-out: HELA-APL LC50, SRB assay, 48 hours exposure): 0.227 µM
- HELA-APL TGI (HeLa-APL; SRB assay, 48 hours exposure): 8.64E−09
